Like-named read-outs stand apart in the source and are kept apart here.
Key:
[1] = system: Methacholine-induced bronchoconstriction in the guinea pig; assay: Lung function in anaesthetised guinea pigs: methacholine-induced bronchoconstriction; assay type: in vivo; settings: after 5 μg/kg methacholine i.v.
Procedure: Evaluation of Lung Function in Anaesthetised Guinea Pigs.
Male Dunkin-Hartley guinea pigs (300-600 g) were weighed and dosed with vehicle (0.05M phosphate, 0.1% Tween 80, 0.6% saline, pH 6) or compound via the intratracheal route under recoverable gaseous anaesthesia (5% halothane in oxygen). Animals were dosed with compound or vehicle two hours prior to the administration of methacholine. Guinea pigs were anaesthetised with pentobarbitone (1 mL/kg of 60 mg/mL solution i.p.) approximately 30 minutes prior to the first bronchoconstrictor administration. The trachea was cannulated and the animal ventilated using a constant volume respiratory pump (Harvard Rodent Ventilator model 683) at a rate of 60 breath/min and a tidal volume of 5 mL/kg. A jugular vein was cannulated for the administration of methacholine or maintenance anaesthetic (0.1 mL of pentobarbitone solution, 60 mg/mL, as required).
The animals were transferred to a Flexivent System (SCIREQ, Montreal, Canada) in order to measure airway resistance. The animals were ventilated (quasi-sinusoidal ventilation pattern) at 60 breaths/min at a tidal volume of 5 mL/kg. A positive end expiratory pressure of 2-3 cm H2O was applied. Respiratory resistance was measured using the Flexivent “snapshot” facility (1 second duration, 1 Hz frequency). Once a stable baseline resistance value had been obtained the animals were given methacholine in ascending doses (0.5, 1, 2, 3 and 5 μg/kg, i.v) at approximately 4-minute intervals via the jugular catheter. After each administration of bronchoconstrictor the peak resistance value was recorded. Guinea pigs were euthanised with approximately 1.0 mL pentobarbitone sodium (Euthatal) intravenously after the completion of the lung function measurements.
Percentage bronchoprotection produced by a compound was calculated at each dose of brochoconstrictor as follows:
Where % change Rveh is the mean of the maximum percentage change in airway resistance in the vehicle treated group. The results reported were measured after 5 μg/kg methacholine and were expressed as percentage bronchoprotection (mean±s.e.mean).
Guinea pigs were dosed with vehicle, 3 and 27 μg/kg compound (BA1), 0.2 μg/kg compound (MA2) (Crystalline Form A) or a combination of 3 μg/kg Compound (BA1) and 0.2 μg/kg Compound (MA2) via the intratracheal route. Administration of increasing intravenous doses of methacholine (0.5, 1, 2, 3 and 5 μg/kg) evoked dose-related bronchoconstriction in the vehicle treated animals ranging from 13±2.6% at 0.5 μg/kg to 2530±280% at 5 μg/kg two hours after vehicle administration (n=9).
[…] Administration of increasing intravenous doses of methacholine (0.5, 1, 2, 3 and 5 μg/kg) evoked dose-related bronchoconstriction in the vehicle treated animals ranging from 14±2.6% at 0.5 μg/kg to 2240±269% at 5 μg/kg two hours after vehicle administration (n=10).

[2] = system: isolated guinea-pig tracheal rings precontracted with methacholine; assay: Isolated tracheal rings from guinea-pig preconstricted with methacholine; assay type: cell-based; settings: for % inhibition of 1 μM Methacholine induced tone: Formoterol 1 nM, Compound A or B 10 nM; for inhibition at 0.001 µM: Cavia porcellus, read-out: % inhibition of 1 μM Methacholine induced tone
Procedure: Evaluation of Compound Activity on Isolated Tracheal Rings from Guinea-Pig Preconstricted with Methacholine. […] Male albino Dunkin Hartley guinea-pigs (300-350 g) were killed by cervical dislocation and the trachea excised. Adherent connective tissue was removed and the trachea cut into ring segments (2-3 mm wide). These were suspended in 10 mL organ baths containing a modified Krebs solution composition (mM): NaCl 117.56, KCl 5.36, NaH2PO4 1.15, MgSO4 1.18, glucose 11.10, NaHCO3 25.00 and CaCl2 2.55. […] The tracheal rings were suspended between two stainless steel hooks, one attached to an isometric force transducer and the other to a stationary support in the organ bath. Changes in isometric force were recorded. Acetyl-β-methylcholine chloride (Methacholine), Indomethacin, Corticosterone-21-acetate, Phentolamine hydrochloride, Ascorbic acid, CGP20712A methanesulphate were obtained from the Sigma Chemical Company. […] At the beginning of each experiment a force of 1.0 g·wt. was applied to the tissues and this was reinstated over a 30 min equilibration period until it remained steady. […] Tissues were washed by exchanging the bathing Krebs solution three times. […] Data were collected using the ADInstruments Chart5 for windows software, the tension generated was measured before addition of methacholine and after its response had reached plateau. […] All responses were expressed as percentage inhibition of the methacholine-induced contraction. The results are depicted in FIG. 6 and Table 2, wherein compound A is (MA2). […] Tissues were washed by exchanging the bathing Krebs solution three times. […] Data were collected using the ADInstruments Chart5 for windows software, the tension generated was measured before addition of methacholine and after its response had reached plateau. […] All responses were expressed as percentage inhibition of the methacholine-induced contraction. The results are depicted in FIG. 7 and Table 3, wherein compound B is (MA11).

[3] = Gravimetric vapour sorption (GVS); assay type: physicochemical; settings: at 80% RH, ambient temperature
Procedure: GVS profiles were measured using a Dynamic Vapour Sorption DVS-1 instrument. The solid sample ca. 1-5 mg was placed into a glass vessel and the weight of the sample was recorded during a dual cycle step method (40 to 90 to 0 to 90 to 0% relative humidity (RH), in steps of 10% RH). GVS profiles were recorded at ambient temperature.

[4] = target: T1, human muscarinic receptors (M3) (Homo sapiens, UniProt P20309); assay: Muscarinic Receptor Radioligand Binding Assay ([3H]-NMS); settings: membranes expressing human M3
T1 construct: purchased
T1 sequence (P20309 whole entry): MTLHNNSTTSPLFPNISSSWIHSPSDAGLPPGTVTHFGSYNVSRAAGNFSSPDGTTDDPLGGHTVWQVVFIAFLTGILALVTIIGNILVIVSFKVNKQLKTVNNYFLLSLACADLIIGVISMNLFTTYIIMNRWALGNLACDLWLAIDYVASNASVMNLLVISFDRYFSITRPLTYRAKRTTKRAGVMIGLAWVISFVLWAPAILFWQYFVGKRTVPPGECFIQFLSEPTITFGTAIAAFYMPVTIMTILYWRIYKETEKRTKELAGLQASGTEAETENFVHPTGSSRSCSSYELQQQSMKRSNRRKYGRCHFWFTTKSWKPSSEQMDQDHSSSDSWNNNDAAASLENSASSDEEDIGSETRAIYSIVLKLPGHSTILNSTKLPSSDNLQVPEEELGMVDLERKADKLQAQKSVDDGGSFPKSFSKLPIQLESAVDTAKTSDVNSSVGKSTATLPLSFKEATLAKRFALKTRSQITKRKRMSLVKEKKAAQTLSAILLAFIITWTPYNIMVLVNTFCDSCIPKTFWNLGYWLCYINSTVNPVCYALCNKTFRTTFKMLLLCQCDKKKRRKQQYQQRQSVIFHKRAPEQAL
Procedure: The inhibitory effects of compounds of the muscarinic antagonists were determined by a Muscarinic Receptor Radioligand Binding Assay.
Radioligand binding studies utilising [^3H]-N-methyl scopolamine ([^3H]-NMS) and commercially available cell membranes expressing the human muscarinic receptors (M2 or M3) were used to assess the affinity of muscarinic antagonists for M2 and M3 receptors. Membranes in TRIS buffer were incubated in 96-well plates with [^3H]-NMS and M3 antagonist at various concentrations for 3 hours. Membranes and bound radioligand were then harvested by filtration and allowed to dry overnight. Scintillation fluid was then added and the bound radioligand counted using a Canberra Packard Topcount scintillation counter

[5] = MA11 at 0.2 μg/kg intratracheal
[6] = MA2 0.2 μg/kg intratracheal, 2 hours prior to methacholine

For `C[N+](C)(CCOCc1ccc(Cl)cc1)Cc1cnc([C@](O)(c2ccccc2)C2CCCCC2)o1` [MA11, [2-(4-chloro-benzyloxy)-ethyl]-[2-((R)-cyclohexyl-hydroxy-phenyl-methyl)-oxazol-5-ylmethyl]-dimethyl-ammonium hemi-naphthalene-1,5-disulfonate], the increase in resistance [1, 5] was 1880±272%, the “inhibition of methacholine-induced bronchoconstriction” value [1, 5] was 16% and the “% inhibition of 1 μM Methacholine induced tone” value (shortened to “% inhibition”) ([2]; 10 min) was 11%. For the same compound, the “% inhibition” value ([2]; 20 min) was 29%, the “% inhibition” value ([2]; 30 min) was 49% and the “% inhibition” value ([2]; 40 min) was 67%. The “% inhibition” value ([2]; 50 min) was 84%.

`C[N+](C)(CCCOc1ccccc1)Cc1cnc([C@](O)(c2ccccc2)C2CCCCC2)o1` [MA7 Form 1, [2-((R)-Cyclohexyl-hydroxy-phenyl-methyl)-oxazol-5-ylmethyl]-dimethyl-(3-phenoxy-propyl)-ammonium hemi-naphthalene-1,5-disulfonate] showed a GVS weight increase [3] of 3.1 % w/w.

In the case of `COc1ccc(CC(C)NCC(O)c2ccc(O)c(NC=O)c2)cc1` (centres unmarked) [Formoterol, N-[2-hydroxy-5-[(1)-1-hydroxy-2-[[(1)-2-(4-methoxyphenyl)-1-methylethyl]amino]ethyl]phenyl]-formamide, reference compound], the inhibition at 0.001 µM ([2]; 10 min) is reported as 21%, the inhibition at 0.001 µM ([2]; 20 min) is reported as 37% and the inhibition at 0.001 µM ([2]; 0.5 h) is reported as 41%. It also gave an inhibition at 0.001 µM ([2]; 40 min) of 42% and an inhibition at 0.001 µM ([2]; 50 min) of 44%.

`C[N+](C)(CCCOc1ccccc1)Cc1cnc([C@@](O)(c2ccccc2)C2CCCCC2)o1` [MA1, [2-((S)-Cyclohexyl-hydroxy-phenyl-methyl)-oxazol-5-ylmethyl]-dimethyl-(3-phenoxy-propyl)-ammonium bromide] gave a Ki [4] of 9400 pM.

With `C[N+](C)(CCOCc1ccc(Cl)cc1)Cc1cnc([C@](O)(c2ccccc2)C2CCCCC2)o1` [MA6, [2-(4-chloro-benzyloxy)-ethyl]-[2-((R)-cyclohexyl-hydroxy-phenyl-methyl)-oxazol-5-ylmethyl]-dimethyl-ammonium bromide] the Ki [4] was 600 pM.

In the case of `C[N+](C)(CCCOc1ccc(Cl)c(Cl)c1)Cc1cnc([C@](O)(c2ccccc2)C2CCCCC2)o1` [MA4, [2-((R)-Cyclohexyl-hydroxy-phenyl-methyl)-oxazol-5-ylmethyl]-[3-(3,4-dichloro-phenoxy)-propyl]-dimethyl-ammonium bromide], the Ki [4] is reported as 900 pM.

Compound `C[N+](C)(CCCOc1ccccc1)Cc1cnc([C@](O)(c2ccccc2)C2CCCCC2)o1.[Br-]` [MA2 Crystalline Form A, [2-((R)-Cyclohexyl-hydroxy-phenyl-methyl)-oxazol-5-ylmethyl]-dimethyl-(3-phenoxy-propyl)-ammonium bromide] has a GVS weight increase [3] of 0.8 % w/w.

In the case of `C[N+](C)(CCOCc1ccc(Cl)c(Cl)c1)Cc1cnc([C@](O)(c2ccccc2)C2CCCCC2)o1` [MA5, [2-((R)-Cyclohexyl-hydroxy-phenyl-methyl)-oxazol-5-ylmethyl]-[2-(3,4-dichloro-benzyloxy)-ethyl]-dimethyl-ammonium bromide], the Ki [4] is reported as 2100 pM.

Work on `C[N+](C)(CCOCCc1ccccc1)Cc1cnc([C@](O)(c2ccccc2)C2CCCCC2)o1` [MA3, [2-((R)-Cyclohexyl-hydroxy-phenyl-methyl)-oxazol-5-ylmethyl]-dimethyl-(2-phenethyloxy-ethyl)-ammonium bromide] yielded a Ki [4] of 600 pM.

For `C[N+](C)(CCCOc1ccccc1)Cc1cnc([C@](O)(c2ccccc2)C2CCCCC2)o1.[Br-]` [MA2, [2-((R)-Cyclohexyl-hydroxy-phenyl-methyl)-oxazol-5-ylmethyl]-dimethyl-(3-phenoxy-propyl)-ammonium bromide], the increase in resistance [1, 6] was 2210±268%, the “inhibition of methacholine-induced bronchoconstriction” value [1, 6] was 13% and the Ki [4] was 200 pM. For the same compound, the “% inhibition” value ([2]; 10 min) was 23%, the “% inhibition” value ([2]; 20 min) was 62% and the “% inhibition” value ([2]; 30 min) was 94%. For the same compound, the “% inhibition” value ([2]; 40 min) was 104% and the “% inhibition” value ([2]; 50 min) was 106%.

`C[N+](C)(CCCOc1ccccc1)Cc1cnc([C@](O)(c2ccccc2)C2CCCCC2)o1` [MA7 Form 3, [2-((R)-Cyclohexyl-hydroxy-phenyl-methyl)-oxazol-5-ylmethyl]-dimethyl-(3-phenoxy-propyl)-ammonium hemi-naphthalene-1,5-disulfonate] gave a GVS weight increase [3] of 3.0 % w/w.

With `C[N+](C)(CCCOc1ccccc1)Cc1cnc([C@](O)(c2ccccc2)C2CCCCC2)o1` [MA7 Form 2, [2-((R)-Cyclohexyl-hydroxy-phenyl-methyl)-oxazol-5-ylmethyl]-dimethyl-(3-phenoxy-propyl)-ammonium hemi-naphthalene-1,5-disulfonate] the GVS weight increase [3] was 0.7 % w/w.

From patent publication US20110046191A1, “COMBINATION OF A MUSCARINIC RECEPTOR ANTAGONIST AND A BETA-2-ADRENOCEPTOR AGONIST” (ARGENTA DISCOVERY LTD., priority 2007, published 2011)
